Measured values from US10160705B2, “Class of HDAC inhibitors expands the renal progenitor cells population and improves the rate of recovery from acute kidney injury” (University of Pittsburgh—Of the Commonwealth System of …, priority 2011, dated 2018).

Legend:
renal progenitor cells = test: In situ hybridization for lhx1a expression in 10-somite embryos (renal progenitor cell expansion); assay type: in vivo; details: 3 μM from 2 hpf, 10-somite embryos; for responders at 3 µM: Danio rerio, read-out: lhx1a expansion, percent of treated embryos
Description: PTBA was synthesized as described below. Hydroxyurea and aphidicolin were obtained from Sigma-Aldrich.
In situ hybridization and immunocytochemistry: In situ hybridization was performed as previously described with some modifications.142 Hybridization temperature was 65° C. Embryos were blocked in 2% blocking reagent (Roche) with 5% sheep serum in MAB (100 mM maleic acid and 150 mM NaCl [pH 7.5]). Whole-mount immunocytochemistry with 1:25 mouse anti-α6F antibody (Developmental Studies Hybridoma Bank) and 1:100 Cy3 secondary antibody (Jackson ImmunoResearch) was performed as described previously.108 Embryos were embedded in JB-4 for sectioning per the manufacturer's instructions (Polysciences), sectioned at 5 μm, and mounted with Cytoseal 60 (Richard-Allan Scientific).
The remaining PTBA analogs were synthesized.
In situ hybridization for lhx1a was performed as described above. […] Compounds were classified as effective, partially-effective or ineffective based on comparison to the effects of PTBA at a given concentration.
Testing of the compounds is on-going, but for those tested, Table 6 provides first pass EC50s based upon colormetric in situ hybridizations for the Lhx1a mRNA expression levels. After the procedure is run, in situ hybridization is done for the lhx1 mRNA expression and the number of embryos that show an expanded kidney field is manually counted to establish the percent of embryos showing expansion. Then the EC50 is determined by plotting the percent expansion in Excel, graphing the results and using the trendline function to determine the 50 percent point.

zebrafish embryos = test: Phenotypic screen for edema and survival in zebrafish larvae at 72 hpf; details: for Dead / Edemic 1 (E1) / Edemic 2 (E2) / Edemic 3 (E3) / Wild-type (WT): number of larvae (of 36), 3 μM from 2 hpf, scored at 72 hpf
Description: The screen was performed in zebrafish embryos using the National Cancer Institute's Developmental Therapeutics Program (NCI/DTP) Diversity Set I. This library contains 1990 compounds selected by pharmacophore modeling to represent the more than 140,000 small molecules maintained in the NCI/DTP Open Repository. Compounds from the NCI/DTP Diversity Set I were diluted to 10 μM in E3 embryo medium (5 mM NaCl, 0.33 mM CaCl2, 0.33 mM MgSO4, and 0.17 mM KCl) in a final DMSO concentration of 0.5% and arrayed in 96-well plates. Beginning at approximately 2 hpf, embryos were transferred to each well in groups of five using a glass pipette. The plates were incubated at 28.5° C. for 70 hours. Individual wells were then scored for a dominant phenotype, representative of at least four of the five embryos. The primary objective was to identify compounds that caused edema in treated embryos at 72 hpf. Small molecules generating edema were retested once for verification, before obtaining additional compound from the NCI/DTP Open Repository.
PTBA was synthesized as described below. Hydroxyurea and aphidicolin were obtained from Sigma-Aldrich. Groups of 20 to 30 chorionated 2 hpf embryos were arrayed in individual wells of 12-well plates. E3 medium was removed with a glass pipette and replaced with 1.5 ml treatment solutions containing 0.5% DMSO in E3 with or without compound at the reported concentrations. Treatments for all studies were initiated at 2 hpf, except for the temporal studies (FIG. 6) and the HUA studies (FIG. 11). HUA studies were performed as described previously (Zhang, L., et al. Cell cycle progression is required for zebrafish somite morphogenesis but not segmentation clock function. Development 135, 2065-2070, (2008)), with the following modifications. HUA in 0.5% DMSO was added at early gastrulation (5 hpf) and PTBA was subsequently added at late gastrulation (8 hpf) to allow for penetration of the proliferation inhibitors. All embryos were incubated at 28.5° C. until the required developmental stage.
Following 70 hours of treatment (as described above), edemic phenotypes in 72 hpf larvae were scored using a phenotype-based classification system. Wild type: no visible edema or developmental delay. […] Significant effects (p<0.05) on survival were determined by two-tailed Fisher's exact test in comparison with the 0 μM PTBA treatment group.
PTBA and methyl-4-(phenylthio)butanoate were synthesized as described above. 4-(Naphthalen-2-ylthio)butanoic acid (NSC2733) and 3-(phenylthio)benzoic acid (NSC113994), were obtained from the NCI/DTP Open Repository. APHA compound 8, Apicidin, butanoic acid, PBA, 4-phenoxybutanoic acid, 5-phenylpentanoic acid, Scriptaid, TSA, and valproic acid were obtained from Sigma-Aldrich. MS-275 and SAHA were obtained from Cayman Chemical Co. 4-(phenylsulfonyl)butanoic acid was obtained from Matrix Scientific. Tubacin was a gift of Dr. Ralph Mazitschek of the Broad Institute (Cambridge, Mass.). The remaining PTBA analogs were synthesized. Three independent groups of 12 chorionated 2 hpf embryos were arrayed in individual wells of 24-well plates. E3 medium was removed with a glass pipette and replaced with 800 μl treatment solutions containing 0.5% DMSO in E3 with or without compound at the reported concentrations.
Phenotypic screening of PTBA analogs was performed identically to the concentration-response experiments detailed above. Embryos were treated with each PTBA analog from 2 to 72 hpf as described above.

Structure (SMILES)	Lhx1a expansion caused by analog treatment, 3 μM (renal progenitor cells)	lhx1a expansion, percent of treated embryos (renal progenitor cells)	Dead (zebrafish embryos)	Edemic 1 (E1) (zebrafish embryos)	Edemic 2 (E2) (zebrafish embryos)	Edemic 3 (E3) (zebrafish embryos)	Wild-type (WT) (zebrafish embryos)	lhx1a expansion, percent of treated embryos (renal progenitor cells; listed as 4-(napthalen-2-ylthio)butanoic acid)	responders at 3 µM (renal progenitor cells)	effect on zebrafish embryos in the phenotypic screen (zebrafish embryos; 3 μM)
O=C(O)c1cccc(Sc2ccccc2)c1 [3-(phenylthio)benzoic acid, reference compound]	−	no expansion	0	34	0	0	2			
O=C(O)CCCSc1ccc2ccccc2c1 [4-(naphthalen-2-ylthio)butanoic acid, 4-(Naphthalen-2-ylthio)butanoic acid, reference compound]	−		2	9	0	0	25	no expansion	33%	
O=C(O)CCCOc1ccccc1 [4-phenoxybutanoic acid, reference compound]	−		0	0	0	0	36		13%	
O=C(O)CCCCc1ccccc1 [5-phenylpentanoic acid, reference compound]	−	no expansion	0	0	0	0	36			
Cn1cc(C(=O)Cc2ccccc2)cc1/C=C/C(=O)NO [APHA compound 8, reference compound]	−		0	0	0	0	36			
Nc1ccccc1NC(=O)c1ccc(CNC(=O)OCc2cccnc2)cc1 [MS-275, reference compound]	−		0	0	0	0	36			no effect
